Data as given in patent US8802597B2, “Herbicidal pyrimidines” (E I du Pont de Nemours and Company, priority 2003, dated 2014).

How the values were obtained:
Type in all cases: in vivo
[1] = tested on: blackgrass (Alopecurus myosuroides); experiment: Test C postemergence; conditions: for Plant response rating, Blackgrass: scale 0 to 100
Summary of the method: (§1)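 We sprayed seeded pots preemergence and 2–18 cm seedlings postemergence with test chemicals in a non-phytotoxic solvent mixture including surfactant. Greenhouse plants were visually compared with untreated controls at 12 to 14 days and scored 0 (no effect) to 100 (complete control).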

[2] = tested on: canarygrass (Phalaris minor); experiment: Test C postemergence; conditions: for Plant response rating, Canarygrass: scale 0 to 100
Summary of the method: as §1

[3] = tested on: windgrass (Apera spica-venti); experiment: Test C postemergence
Summary of the method: as §1

[4] = tested on: Italian ryegrass (Lolium multiflorum); experiment: Test C postemergence
Summary of the method: as §1

[5] = tested on: wild oat (Avena fatua); experiment: Test C postemergence
Summary of the method: as §1

[6] = tested on: downy brome (Bromus tectorum); experiment: Test C postemergence; conditions: for Plant response rating, Bromegrass, Downy: scale 0 to 100
Summary of the method: as §1

[7] = tested on: green foxtail (Setaria viridis); experiment: Test C postemergence
Summary of the method: as §1

[8] = tested on: wheat (Triticum aestivum); experiment: Test C postemergence
Summary of the method: as §1

[9] = tested on: winter barley (Hordeum vulgare); experiment: Test C postemergence; conditions: for Plant response rating, Barley: scale 0 to 100
Summary of the method: as §1

[10] = tested on: rice (Oryza sativa); experiment: Test C flooded paddy test; conditions: Flood, scale 0 to 100
Summary of the method: (§2)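 Grow to 2-leaf stage under flood; apply test chemical; maintain in greenhouse 12–14 days alongside controls; evaluate visually on 0–100 scale (100 = complete control).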

[11] = tested on: barnyardgrass (Echinochloa crus-galli); experiment: Test C flooded paddy test; conditions: Flood
Summary of the method: as §2

[12] = tested on: umbrella sedge (Cyperus difformis); experiment: Test C flooded paddy test; conditions: Flood, scale 0 to 100
Summary of the method: as §2

[13] = 500 g ai/ha, scale 0 to 100 (0 no effect, 100 complete control)
[14] = 62 g ai/ha, scale 0 to 100 (0 no effect, 100 complete control)
[15] = 125 g ai/ha, scale 0 to 100 (0 no effect, 100 complete control)

## COC(=O)c1nc(C2CC2)nc(N)c1Br [Compound 2, methyl 6-amino-5-bromo-2-cyclopropyl-4-pyrimidinecarboxylate]
[1]; 31 g ai/ha
  Plant response rating (scale of 0 to 100), Blackgrass: 60
[1]; 125 g ai/ha
  Plant response rating, Blackgrass: 70
[1]; 250 g ai/ha
  Plant response rating, Blackgrass: 75
[1]; Alopecurus myosuroides, post-emergence, 62 g ai/ha, scale 0 to 100 (0 no effect, 100 complete control), read-out: Blackgrass plant response rating
  pest or weed control at 62 g/ha: 65%
[2]; 31 g ai/ha
  Plant response rating (scale of 0 to 100), Canarygrass: 30
[2]; 125 g ai/ha
  Plant response rating, Canarygrass: 40
[2]; 250 g ai/ha
  Plant response rating, Canarygrass: 40
[2]; Phalaris minor, post-emergence, 62 g ai/ha, scale 0 to 100 (0 no effect, 100 complete control), read-out: Canarygrass plant response rating
  pest or weed control at 62 g/ha: 40%
[3]; 31 g ai/ha
  Plant response rating (scale of 0 to 100), Windgrass: 65
[3]; 250 g ai/ha, scale 0 to 100
  Plant response rating, Windgrass: 70
[3]; Apera spica-venti, post-emergence, 62 g ai/ha, scale 0 to 100 (0 no effect, 100 complete control), read-out: Windgrass plant response rating
  pest or weed control at 62 g/ha: 65%
[3]; Apera spica-venti, post-emergence, 125 g ai/ha, scale 0 to 100 (0 no effect, 100 complete control), read-out: Windgrass plant response rating
  pest or weed control at 125 g/ha: 70%
[4]; 31 g ai/ha
  Plant response rating (scale of 0 to 100), Ryegrass, Italian: 35
[4]; 250 g ai/ha, scale 0 to 100
  Plant response rating, Ryegrass, Italian: 60
[4]; Lolium multiflorum, post-emergence, 62 g ai/ha, scale 0 to 100 (0 no effect, 100 complete control), read-out: Ryegrass, Italian plant response rating
  pest or weed control at 62 g/ha: 45%
[4]; Lolium multiflorum, post-emergence, 125 g ai/ha, scale 0 to 100 (0 no effect, 100 complete control), read-out: Ryegrass, Italian plant response rating
  pest or weed control at 125 g/ha: 60%
[5]; 31 g ai/ha
  Plant response rating (scale of 0 to 100), Oat, Wild: 20
[5]; 250 g ai/ha, scale 0 to 100
  Plant response rating, Oat, Wild: 60
[5]; Avena fatua, post-emergence, 62 g ai/ha, scale 0 to 100 (0 no effect, 100 complete control), read-out: Oat, Wild plant response rating
  pest or weed control at 62 g/ha: 55%
[5]; Avena fatua, post-emergence, 125 g ai/ha, scale 0 to 100 (0 no effect, 100 complete control), read-out: Oat, Wild plant response rating
  pest or weed control at 125 g/ha: 55%
[6]; 31 g ai/ha
  Plant response rating (scale of 0 to 100), Bromegrass, Downy: 20
[6]; 125 g ai/ha
  Plant response rating, Bromegrass, Downy: 45
[6]; 250 g ai/ha
  Plant response rating, Bromegrass, Downy: 60
[6]; Bromus tectorum, post-emergence, 62 g ai/ha, scale 0 to 100 (0 no effect, 100 complete control), read-out: Bromegrass, Downy plant response rating
  pest or weed control at 62 g/ha: 35%
[7]; 31 g ai/ha
  Plant response rating (scale of 0 to 100), Foxtail, Green: 55
[7]; 250 g ai/ha, scale 0 to 100
  Plant response rating, Foxtail, Green: 70
[7]; Setaria viridis, post-emergence, 62 g ai/ha, scale 0 to 100 (0 no effect, 100 complete control), read-out: Foxtail, Green plant response rating
  pest or weed control at 62 g/ha: 55%
[7]; Setaria viridis, post-emergence, 125 g ai/ha, scale 0 to 100 (0 no effect, 100 complete control), read-out: Foxtail, Green plant response rating
  pest or weed control at 125 g/ha: 65%
[8]; 31 g ai/ha
  Plant response rating (scale of 0 to 100), Wheat: 20
[8]; 250 g ai/ha, scale 0 to 100
  Plant response rating, Wheat: 65
[8]; Triticum aestivum, post-emergence, 62 g ai/ha, scale 0 to 100 (0 no effect, 100 complete control), read-out: Wheat plant response rating
  plant injury at 62 g/ha: 60%
[8]; Triticum aestivum, post-emergence, 125 g ai/ha, scale 0 to 100 (0 no effect, 100 complete control), read-out: Wheat plant response rating
  plant injury at 125 g/ha: 65%
[9]; 31 g ai/ha
  Plant response rating (scale of 0 to 100), Barley: 0
[9]; 125 g ai/ha
  Plant response rating, Barley: 60
[9]; 250 g ai/ha
  Plant response rating, Barley: 60
[9]; Hordeum vulgare, post-emergence, 62 g ai/ha, scale 0 to 100 (0 no effect, 100 complete control), read-out: Barley plant response rating
  plant injury at 62 g/ha: 35%
[10]; 62 g ai/ha
  Plant response rating, Rice: 0
[10]; 125 g ai/ha
  Plant response rating, Rice: 25
[10]; 250 g ai/ha
  Plant response rating, Rice: 45
[10]; 500 g ai/ha
  Plant response rating, Rice: 65
[11]; 62 g ai/ha, scale 0 to 100
  Plant response rating, Barnyardgrass: 0
[11]; 125 g ai/ha, scale 0 to 100
  Plant response rating, Barnyardgrass: 20
[11]; 250 g ai/ha, scale 0 to 100
  Plant response rating, Barnyardgrass: 45
[11]; [13]
  Plant response rating, Barnyardgrass: 75
[12]; 62 g ai/ha
  Plant response rating, Sedge, Umbrella: 0
[12]; 125 g ai/ha
  Plant response rating, Sedge, Umbrella: 0
[12]; 250 g ai/ha
  Plant response rating, Sedge, Umbrella: 0
[12]; 500 g ai/ha
  Plant response rating, Sedge, Umbrella: 25

## COC(=O)c1nc(C2CC2)nc(N=CN(C)C)c1Br [Compound 19]
[1]; 16 g ai/ha
  Plant response rating (scale of 0 to 100), Blackgrass: 55
[1]; 31 g ai/ha
  Plant response rating (scale of 0 to 100), Blackgrass: 60
[1]; [14]
  Blackgrass plant response rating: 65
[1]; 125 g ai/ha
  Plant response rating, Blackgrass: 65
[2]; 16 g ai/ha
  Plant response rating (scale of 0 to 100), Canarygrass: 45
[2]; 31 g ai/ha
  Plant response rating (scale of 0 to 100), Canarygrass: 60
[2]; [14]
  Canarygrass plant response rating: 60
[2]; 125 g ai/ha
  Plant response rating, Canarygrass: 65
[3]; 16 g ai/ha
  Plant response rating (scale of 0 to 100), Windgrass: 40
[3]; 31 g ai/ha
  Plant response rating (scale of 0 to 100), Windgrass: 40
[3]; [14]
  Windgrass plant response rating: 60
[3]; [15]
  Windgrass plant response rating: 60
[4]; 16 g ai/ha
  Plant response rating (scale of 0 to 100), Ryegrass, Italian: 65
[4]; 31 g ai/ha
  Plant response rating (scale of 0 to 100), Ryegrass, Italian: 65
[4]; [14]
  Ryegrass, Italian plant response rating: 65
[4]; [15]
  Ryegrass, Italian plant response rating: 70
[5]; 16 g ai/ha
  Plant response rating (scale of 0 to 100), Oat, Wild: 40
[5]; 31 g ai/ha
  Plant response rating (scale of 0 to 100), Oat, Wild: 40
[5]; [14]
  Oat, Wild plant response rating: 60
[5]; [15]
  Oat, Wild plant response rating: 65
[6]; 16 g ai/ha
  Plant response rating (scale of 0 to 100), Bromegrass, Downy: 0
[6]; 31 g ai/ha
  Plant response rating (scale of 0 to 100), Bromegrass, Downy: 0
[6]; [14]
  Bromegrass, Downy plant response rating: 50
[6]; 125 g ai/ha
  Plant response rating, Bromegrass, Downy: 60
[7]; 16 g ai/ha
  Plant response rating (scale of 0 to 100), Foxtail, Green: 30
[7]; 31 g ai/ha
  Plant response rating (scale of 0 to 100), Foxtail, Green: 35
[7]; [14]
  Foxtail, Green plant response rating: 45
[7]; [15]
  Foxtail, Green plant response rating: 60
[8]; 16 g ai/ha
  Plant response rating (scale of 0 to 100), Wheat: 10
[8]; 31 g ai/ha
  Plant response rating (scale of 0 to 100), Wheat: 30
[8]; [14]
  Wheat plant response rating: 40
[8]; [15]
  Wheat plant response rating: 45
[9]; 16 g ai/ha
  Plant response rating (scale of 0 to 100), Barley: 25
[9]; 31 g ai/ha
  Plant response rating (scale of 0 to 100), Barley: 25
[9]; [14]
  Barley plant response rating: 35
[9]; 125 g ai/ha
  Plant response rating, Barley: 45
[10]; 62 g ai/ha
  Plant response rating, Rice: 0
[10]; 125 g ai/ha
  Plant response rating, Rice: 0
[10]; 250 g ai/ha
  Plant response rating, Rice: 10
[10]; 500 g ai/ha
  Plant response rating, Rice: 20
[11]; 62 g ai/ha, scale 0 to 100
  Plant response rating, Barnyardgrass: 0
[11]; 125 g ai/ha, scale 0 to 100
  Plant response rating, Barnyardgrass: 0
[11]; 250 g ai/ha, scale 0 to 100
  Plant response rating, Barnyardgrass: 0
[11]; [13]
  Plant response rating, Barnyardgrass: 60
[12]; 62 g ai/ha
  Plant response rating, Sedge, Umbrella: 20
[12]; 125 g ai/ha
  Plant response rating, Sedge, Umbrella: 50
[12]; 250 g ai/ha
  Plant response rating, Sedge, Umbrella: 50
[12]; 500 g ai/ha
  Plant response rating, Sedge, Umbrella: 50
